Assay: Piroctone olamine as a phenoxyethanol solution
Type: physicochemical
Details: if heated, for example to 80° C.
Experimental: In some embodiments, piroctone olamine is dissolved in a suitable amount of phenoxyethanol; i.e., all or part of the phenoxyethanol of the composition can be employed as the solvent for the piroctone olamine. Typically, where phenoxyethanol is the solvent for the piroctone olamine pre-mix or pre-solution, the piroctone olamine is present in the pre-mixture or pre-solution in an amount of from 1-30% by weight; for example 5%, 10%, 15%, 20%, 25% or 30% by weight. In such embodiments, the mixture including the piroctone olamine and phenoxyethanol is preferably heated to a temperature of from 50-120° C.; for example from 60-100° C.; for example from 65-80° C.; preferably to effect partial or complete dissolution of the piroctone olamine.
The data above show the feasibility of adding piroctone olamine as a phenoxyethanol solution up to at least 30% w/w during bar soap manufacturing, if heated, for example to 80° C. Furthermore, some piroctone olamine can optionally be supplemented as a solution in a further solvent, such as a fragrance or a fragrance dissolved in a solvent, preferably up to 7.5% at room temperature.

piroctone olamine as a phenoxyethanol solution, feasible concentration: at least 30 % w/w
SMILES: Cc1cc(CC(C)CC(C)(C)C)n(O)c(=O)c1.NCCO (stereo not shown) [piroctone olamine]
